The values that follow come from ChEMBL document CHEMBL5113442, “Discovery of agonist-antagonist pairs for the modulation of Ca [2]+ and voltage-gated K+ channels of large conductance that contain beta1 subunits” (Bioorg Med Chem, 2022).

Molecules are shown by their SMILES. The source made the active and inactive calls. No cut-off for these calls is given here.

Holding throughout (type): cell-based
Experiment [1] in a line: Agonist activity at rat BK calcium channel alphabeta1 expressed in CHO cells assessed as increase in current amplitude by automated whole cell patch clamp analysis.
The test system of experiment [2] is CHO. The experiment is described as follows: Agonist activity at rat BK calcium channel alphabeta1 expressed in CHO cells assessed as maximal current amplitude by automated whole cell patch clamp analysis. The settings on record: filed as agonist.
Experiment [3] has as its system CHO. The experiment is described as follows: Agonist activity at rat BK calcium channel alphabeta1 expressed in CHO cells assessed as fold increase in current amplitude at 0.0001 to 33.3 uM by automated whole cell patch clamp analysis. The following applies: filed as agonist, dose 0.0001-33.3 µM.
The subject of experiment [4] is CHO. Nature of the experiment: Antagonist activity at rat BK calcium channel alphabeta1 expressed in CHO cells assessed as fold change in current amplitude at 1 uM in presence of compound 1 by automated whole cell patch clamp analysis. The following applies: filed as antagonist.
Experiment [5] deals with CHO. The experiment is described as follows: Antagonist activity at rat BK calcium channel alphabeta1 expressed in CHO cells assessed as decrease in current amplitude at 0.1 to 1 uM in presence of compound 1 by automated whole cell patch clamp analysis. The settings on record: filed as antagonist, dose 0.1-1 µM.
Experiment [6] deals with CHO. The experiment is described as follows: Antagonist activity at rat BK calcium channel alphabeta1 expressed in CHO cells assessed as fold change in current amplitude at 3 uM in presence of compound 1 by automated whole cell patch clamp analysis. The settings on record: filed as antagonist.

Consider `C/C(=C/C(=O)C[C@H](C)C(=O)O)[C@@H]1CC(=O)[C@@]2(C)C3=C(C(=O)C[C@]12C)[C@@]1(C)CCC(=O)C(C)(C)[C@@H]1C[C@@H]3O`, for which, in experiment [1], the EC50 worked out at 20 nM. Besides, the ECmax in the experiment with CHO [2] is 0.78 µM.
For `CC[C@@H](C)NS(=O)(=O)c1cc([N+](=O)[O-])ccc1Oc1c(C)c(C(=O)NC[C@@H]2CCCO2)nn1-c1cccc(C)c1C` the same measures were 2 nM and 0.42 µM.
For `O=C(Nc1ccc(F)cc1)c1nnc(/C(Cl)=C\c2cccc([N+](=O)[O-])c2)s1` the same measures were 5 nM and 0.72 µM.
As for `COc1ccc([N+](=O)[O-])cc1/N=c1\ssc2c1-c1cc(C)c(C)cc1NC2(C)C`, the fold change (FC) in the experiment with CHO [3] was 3.86.
As to `COc1ccc(NC(=O)/C(=C\c2cccc([N+](=O)[O-])c2)NC(=O)c2ccc(F)cc2Cl)cc1OC`, the ECmax with CHO [2] worked out at 0.15 µM. Besides, the fold change (FC) in the experiment on CHO [3] is 1.94.
As for `Cc1n[nH]c(C)c1CCc1nc2c3ccccc3nc(SCc3ccc([N+](=O)[O-])cc3)n2n1`, the fold change (FC) came to 2.2 in the experiment on CHO [4], 1.23 in the experiment with CHO [3] and 2 in the experiment with CHO [6]. The ECmax in the experiment with CHO [2] was found to be 0.25 µM. In addition, the result with CHO [5] was Active.
Take `COc1cc(/C=C2/C(=O)NC(=O)N(c3ccccc3)C2=O)cc(Br)c1OCc1ccc([N+](=O)[O-])cc1`: the ECmax in the experiment with CHO [2] amounted to 0.35 µM. The fold change (FC) in the experiment with CHO [3] is 4.07.
Turning to `O=C(Cc1ccc([N+](=O)[O-])cc1)NC[C@H](c1ccccc1Cl)c1c[nH]c2ccccc12`, the fold change (FC) in the experiment on CHO [3] amounted to 2.51.
On the same count and under the same terms, then `O=C(NCc1ccc(F)cc1)c1nnc(/C(Cl)=C\c2cccc([N+](=O)[O-])c2)s1`, with 1.73.
Regarding `O=C1NC(=O)N(c2ccc(F)cc2)C(=O)/C1=C/c1cc(Br)ccc1OCc1cccc([N+](=O)[O-])c1`, the EC50 in experiment [1] turned out to be 20 nM. For the same molecule, the ECmax in the experiment on CHO [2] came out at 1.05 µM.
As for `C/C(=N\Nc1ccc([N+](=O)[O-])cc1S(=O)(=O)Nc1ccccc1Cl)c1ccc2ccccc2c1O`, the ECmax in the experiment on CHO [2] came out at 0.38 µM. The fold change (FC) in the experiment on CHO [3] came out at 4.05.
For `CCOC(=O)c1c(NC(=O)[C@H](C)Sc2nnc(CNC(=O)c3ccc(C)c([N+](=O)[O-])c3)n2CCc2ccccc2)sc2c1CCC2` the same measures were 0.14 µM and 1.84.
As to `COc1ccc(C(=O)NC(=S)Nc2ccc(O)c(-c3nc4ccc(C)cc4o3)c2)cc1[N+](=O)[O-]`, the ECmax with CHO [2] was determined as 0.21 µM. Besides, in the experiment with CHO [3], the fold change (FC) was determined as 2.47.
Take `Cc1ccc(C(=O)NN2C(=O)/C(=C\c3ccc(OC(=O)c4cccc([N+](=O)[O-])c4)cc3)SC2=S)cc1`: the fold change (FC) in the experiment on CHO [3] came out at 2.47.
As to `O=C(Nc1ccccc1)c1nnc(/C(Cl)=C\c2cccc([N+](=O)[O-])c2)s1`, the ECmax in the experiment with CHO [2] turned out to be 0.44 µM. In the experiment with CHO [3], the fold change (FC) came out at 4.05.
